Reference: patent US20150148311A1, “NON-SYSTEMIC TGR5 AGONISTS” (Ardelyx, Inc., priority 2011, published 2015)

What was measured:
[1] = Compound concentration in gall bladder, LC-MS/MS, 8 h post dose; assay type: in vivo; conditions: male, C57BL/6, mouse, with contents, mice, 30 mg/kg, gallbladder homogenate, read-out: Mean Example Gallbladder Concentration
Method: (§1) Eight hours later, each mouse was heavily anesthetized with isoflurane, the peritoneal cavity was opened and the gallbladder, with its entire contents, was carefully excised and weighed. Blood was collected from the left ventricle of the heart and processed to plasma in EDTA-coated tubes containing aprotinin and DPPIV inhibitor for measurement of total GLP-1 (K150FCC; Meso Scales Discovery, Gaithersburg Md.).
Compound concentrations in the gall bladder were determined as follows: each mouse was heavily anesthetized with isoflurane, the peritoneal cavity was opened and the gallbladder, with its entire contents, was carefully excised. After harvest, gall bladders were homogenized in 100 μL water using a micro-homogenizer. Samples of homogenate were diluted 1:5 in water and precipitated with three volumes of neat acetonitrile. After centrifugation, supernatants were analyzed by LC-MS/MS. The level of test compound present in gall bladder samples was interpolated from a standard curve for each individual compound prepared in a matrix of gallbladder homogenate from vehicle treated animals.

[2] = Compound plasma concentration, LC-MS/MS, 8 h post dose; assay type: in vivo; conditions: male, C57BL/6, mouse, mice, 30 mg/kg, plasma, read-out: Mean Example Plasma Concentration
Method: as §1
Plasma samples were treated with acetonitrile containing an internal standard, precipitated proteins removed by centrifugation. Supernatants were analyzed by LC-MS/MS and compound concentrations were determined by interpolated from a standard curve prepared in plasma.

human TGR5 = target: T1, human TGR5 (Homo sapiens, UniProt Q8TDU6); assay: Cell-based TGR5 assay, HEK293 cells stably expressing human TGR5, cAMP by HTRF; conditions: HEK293 cells stably expressing human TGR5, 30 min at 37 C, 0.05 nM to 10 μM, read-out: pEC50 Human TGR5 (converted)
T1 construct: expressed in transfected cells
T1 sequence (Q8TDU6 1-330): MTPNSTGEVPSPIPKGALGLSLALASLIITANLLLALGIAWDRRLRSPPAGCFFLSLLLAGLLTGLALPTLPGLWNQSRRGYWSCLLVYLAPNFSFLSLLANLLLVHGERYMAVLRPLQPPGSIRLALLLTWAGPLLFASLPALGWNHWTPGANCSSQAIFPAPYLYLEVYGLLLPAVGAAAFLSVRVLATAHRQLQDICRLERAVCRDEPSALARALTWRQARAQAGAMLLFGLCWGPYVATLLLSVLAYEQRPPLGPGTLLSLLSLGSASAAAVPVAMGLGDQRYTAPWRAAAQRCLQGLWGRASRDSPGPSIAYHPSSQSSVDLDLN
Method in brief: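 cAMP HTRF read-out, converted to concentration via standard curve, after a 30 min, 37 °C compound exposure in HBSS with 10 mM HEPES pH 7.4 and 0.5 mM IBMX, compounds serially diluted 3-fold from 10 mM DMSO stock then 100-fold. Cells: stable human TGR5 HEK293, or NCI-H716 expressing TGR5 endogenously.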

[3] = target: T2, endogenously expressed TGR5 in NCI H716 (Homo sapiens, UniProt Q8TDU6); assay: Cell-based TGR5 assay, NCI-H716 cells endogenously expressing human TGR5, cAMP by HTRF; conditions: 30 min at 37 C, 22 nM to 50 μM, read-out: pEC50 endogenously expressed TGR5 in NCI H716 (converted)
T2 construct: human caecum carcinoma cell line NCI-H716 which endogenously expresses human TGR5; endogenous in cells; host or cells: NCI-H716
T2 sequence (Q8TDU6 1-330): T1 sequence (Q8TDU6 1-330)
Method: Two primary cell based screens were performed. The first utilized HEK293 cells stably transfected to heterologously express human TGR5. The second screen used the human caecum carcinoma cell line NCI-H716 which endogenously expresses human TGR5. In both assays, cells are treated with candidate TGR5 activators and assessed for the increased intercellular levels of cAMP. […]
TGR5-mediated cAMP generation was measured using a homogeneous time resolved fluorescence (HTRF) detection method (Cisbio). Test compounds were dissolved in DMSO to a final concentration of 10 mM. Serial 3-fold dilutions of the stock solution were made in DMSO, and these solutions were diluted 100-fold into Hanks Balanced Salt Solution supplemented with 10 mM HEPES pH 7.4 and 0.5 mM isobutyl methylxanthine (IBMX). Prior to assay, culture medium was replaced with fresh medium, and test compounds diluted in HBSS/HEPES/IBMX were added to the cells and incubated at 37° C. for 30 minutes.
Following incubation with test compounds, cAMP was detected through the successive addition of cAMP labeled with the modified allophyocyanin dye d2 (cAMP-d2) and cryptate-labeled anti-cAMP in lysis buffer, and reading HTRF per the manufacturer's instructions. A standard curve was used to convert the raw HTRF data into [cAMP].

| SMILES | concentration at 8 h [1] [nM] | concentration at 8 h [2] [ng/mL] | EC50 (human TGR5) [nM] | EC50 [3] [nM] |
| --- | --- | --- | --- | --- |
| O=C(NCCCCc1cc(Cl)c(CN2CSC[C@H]2C(=O)N2CCN(C3CC3)c3ccccc32)cc1Cl)NC[C@@H](O)[C@H](O)[C@@H](O)[C@@H](O)CO [Example 177, 1-(4-(2,5-dichloro-4-(((R)-4-(4-cyclopropyl-1,2,3,4-tetrahydroquinoxaline-1-carbonyl)thiazolidin-3-yl)methyl)phenyl)butyl)-3-((2R,3S,4S,5S)-2,3,4,5,6-pentahydroxyhexyl)urea] | 100 |  |  |  |
| O=C(N1CCN(C2CC2)c2ccccc21)C1(OCc2cc(C(F)(F)F)ccc2Cl)CC1 [Example 43, 1-[(1-[[2-chloro-5-(trifluoromethyl)phenyl]methoxy]cyclopropyl)carbonyl]-4-cyclopropyl-1,2,3,4-tetrahydroquinoxaline] |  |  | < 100 | < 100 |
| O=C(N1CCN(C2CC2)c2ccccc21)C1(NCc2cc(Cl)ccc2Cl)COC1 [Example 90, (4-cyclopropyl-3,4-dihydroquinoxalin-1(2H)-yl)(3-(2,5-dichlorobenzylamino)oxetan-3-yl)methanone] |  |  | < 100 | 126 to 1000 |
| NCCCc1cc(Cl)c(CNC2(C(=O)N3CCN(C4CC4)c4ccccc43)CC2)cc1Cl [Example 92, (1-(4-(3-aminopropyl)-2,5-dichlorobenzylamino)cyclopropyl)(4-cyclopropyl-3,4-dihydroquinoxalin-1(2H)-yl)methanone] |  |  | 1260 to 50100 | 1260 to 50100 |
| COc1cc(Cl)c(CN2CCC[C@H]2C(=O)N2CCN(C3CC3)c3ccccc32)cc1Cl [Example 89, (S)-(4-cyclopropyl-3,4-dihydroquinoxalin-1(2H)-yl)(1-(2,5-dichloro-4-methoxybenzyl)pyrrolidin-2-yl)methanone] |  |  | 126 to 1000 | 1260 to 50100 |
| O=C(O)CCc1cc(Cl)c(OCC2(C(=O)N3CCN(C4CC4)c4ccccc43)CC2)cc1Cl [Example 33, 3-[2,5-dichloro-4-([1-[(4-cyclopropyl-1,2,3,4-tetrahydroquinoxalin-1-yl)carbonyl]cyclopropyl]methoxy)phenyl]propanoic acid] |  |  | 1260 to 50100 | 1260 to 50100 |
| CC(C)N1CC(OCc2cc(Cl)ccc2Cl)(C(=O)N2CCN(C3CC3)c3ccccc32)C1 [Example 53, (4-cyclopropyl-3,4-dihydroquinoxalin-1(2H)-yl)(3-(2,5-dichlorobenzyloxy)-1-isopropylazetidin-3-yl)methanone] |  |  | 1260 to 50100 | 1260 to 50100 |
| O=C(N1CCCc2ncccc21)C1(OCc2cc(Cl)ccc2Cl)CC1 [Example 86, 1-([1-[(2,5-dichlorophenyl)methoxy]cyclopropyl]carbonyl)-1,2,3,4-tetrahydro-1,5-naphthyridine] |  |  | > 10000 | > 50100 |
| CN(C[C@H](O)[C@@H](O)[C@H](O)[C@H](O)CO)C(=O)CCc1ccc(Cl)c(CNC2(C(=O)N3CCN(C4CC4)c4ccccc43)CC2)c1 [Example 60, 3-(4-chloro-3-(((1-(4-cyclopropyl-1,2,3,4-tetrahydroquinoxaline-1-carbonyl)cyclopropyl)amino)methyl)phenyl)-N-methyl-N-((2S,3R,4R,5R)-2,3,4,5,6-pentahydroxyhexyl)propanamide] |  |  | 126 to 1000 | 126 to 1000 |
| NCCCc1ccc(Cl)c(CNC2(C(=O)N3CCN(C4CC4)c4ccccc43)CC2)c1 [Example 68, (1-((5-(3-aminopropyl)-2-chlorobenzyl)amino)cyclopropyl)(4-cyclopropyl-3,4-dihydroquinoxalin-1(2H)-yl)methanone] |  |  | 1260 to 50100 | 1260 to 50100 |
| O=C([C@@H]1CCCN1Cc1cc(Cl)cc(OC(F)(F)F)c1)N1CCN(C2CC2)c2ccccc21 [Example 74, 1-[[(2S)-1-[[3-chloro-5-(trifluoromethoxy)phenyl]methyl]-pyrrolidin-2-yl]carbonyl]-4-cyclopropyl-1,2,3,4-tetrahydroquinoxaline] |  |  | 126 to 1000 | > 50100 |
| CN(C[C@H](O)[C@@H](O)[C@H](O)[C@H](O)CO)C(=O)NCCCc1ccc(Cl)c(CNC2(C(=O)N3CCN(C4CC4)c4ccccc43)CC2)c1 [Example 69, 3-(3-(4-chloro-3-(((1-(4-cyclopropyl-1,2,3,4-tetrahydroquinoxaline-1-carbonyl)cyclopropyl)amino)methyl)phenyl)propyl)-1-methyl-1-((2S,3R,4R,5R)-2,3,4,5,6-pentahydroxyhexyl)urea] |  |  | 1260 to 50100 | 1260 to 50100 |
| CS(=O)(=O)N1CC(OCc2cc(Cl)ccc2Cl)(C(=O)N2CCN(C3CC3)c3ccccc32)C1 [Example 55, (4-cyclopropyl-3,4-dihydroquinoxalin-1(2H)-yl)(3-(2,5-dichlorobenzyloxy)-1-(methylsulfonyl)azetidin-3-yl)methanone] |  |  | 126 to 1000 | 1260 to 50100 |
| N#Cc1cccc(COC2(C(=O)N3CCN(C4CC4)c4ccccc43)CC2)c1 [Example 45, 3-((1-(4-cyclopropyl-1,2,3,4-tetrahydroquinoxaline-1-carbonyl)cyclopropoxy)methyl)benzonitrile] |  |  | 126 to 1000 | 1260 to 50100 |
| COc1ccccc1N(C)C(=O)C1(NCc2cc(Cl)ccc2Cl)CC1 [Example 38, 1-(2,5-dichlorobenzylamino)-N-(2-methoxyphenyl)-N-methylcyclopropanecarboxamide] |  |  | < 100 | < 100 |

The next lines start with the values.

| concentration at 8 h [1] [nM] | concentration at 8 h [2] [ng/mL] | EC50 (human TGR5) [nM] | EC50 [3] [nM] | SMILES |
| --- | --- | --- | --- | --- |
|  | 7.6 |  |  | O=C(O)CN(CCCCCc1cc(Cl)c(CN2CSC[C@H]2C(=O)N2CCN(C3CC3)c3ccccc32)cc1Cl)CC(=O)O [Example 276] |
|  |  | 126 to 1000 | 1260 to 50100 | O=C(O)CCCOc1cc(Cl)c(CNC2(C(=O)N3CCN(C4CC4)c4ccccc43)CC2)cc1Cl [Example 187] |
|  |  | 1260 to 50100 | 1260 to 50100 | Cc1ccc(Cl)c(COC2(C(=O)N3CCN(C4CC4)c4ccccc43)CC2)c1F [Example 249] |
|  |  | 126 to 1000 | 126 to 1000 | CN(C[C@H](O)[C@@H](O)[C@H](O)[C@H](O)CO)C(=O)NCCOc1cc(Cl)c(CN2CSC[C@H]2C(=O)N2CCN(C3CC3)c3ccccc32)cc1Cl [Example 184] |
|  |  | < 100 | < 100 | O=C(N1CCN(C2CC2)c2ccccc21)C1(NCc2cc(C(F)(F)F)ccc2Cl)CC1 [Example 255] |
|  |  | 126 to 1000 | 1260 to 50100 | CN(C[C@H](O)[C@@H](O)[C@H](O)[C@H](O)CO)C(=O)NCCOc1cc(Cl)c(CNC2(C(=O)N3CCN(C4CC4)c4ccccc43)CC2)cc1Cl [Example 185] |
|  |  | 126 to 1000 | > 50100 | O=C(N1CCN(C2CC2)c2ccccc21)C1(OCc2cc(Cl)ccc2Cl)CCCCC1 [Example 242] |
|  |  | 126 to 1000 | 126 to 1000 | CN(C[C@H](O)[C@@H](O)[C@@H](O)[C@H](O)CO)C(=O)NCCCc1cc(Cl)c(CNC2(C(=O)N3CCN(C4CC4)c4ccccc43)CC2)cc1Cl [Example 214] |
|  |  | 126 to 1000 | 126 to 1000 | COc1cc(Cl)c(CNC2(C(=O)N3CCN(C4CC4)c4ccccc43)CC2)cc1Cl [Example 256] |
|  |  | 126 to 1000 | 1260 to 50100 | CN(C[C@H](O)[C@@H](O)[C@H](O)[C@H](O)CO)C(=O)CCc1ccc(Cl)c(CN2CSC[C@H]2C(=O)N2CCN(C3CC3)c3ccccc32)c1 [Example 215] |
|  |  | 126 to 1000 | 1260 to 50100 | CN(C[C@H](O)[C@@H](O)[C@H](O)[C@H](O)CO)C(=O)NCCCCOc1cc(Cl)c(CNC2(C(=O)N3CCN(C4CC4)c4ccccc43)CC2)cc1Cl [Example 186] |
